The record followed here is patent publication US7371780B2, “Use of calphostin C to treat drug-resistant tumor cells” (priority 2003, dated 2008).

pIC50: −log10 of the molar value.

The subject of this assay is MCF-7DOX (doxorubicin-resistant) cells. Description: Clonogenic assay, MCF-7DOX cells. It counts as cell-based, human. Here is the method: The breast cancer cell line MCF-7 (lot HTB-22) was obtained from the American […] (ATCC) and maintained in Dulbecco's H21 medium (MEM) supplemented with 10% Fetal Bovine Serum (FBS) (HyClone, Logan, Utah) in a humidified atmosphere containing 5% CO2 at 37° C. To establish drug resistant cell lines, MCF-7 cells were grown in the presence of either paclitaxel or doxorubicin, beginning at a concentration 1000-fold below that required to kill 50% of the cells (the IC50). The drug concentration was increased 3-fold every two weeks (two passages), with an aliquot of the cells removed for storage in liquid nitrogen before each increase in concentration. Dose escalation continued until all cells died, after which the cells able to tolerate the highest concentration of drug were thawed for subsequent study. In this way, paclitaxel-resistant (MCF-7TAX) and doxorubicin-resistant (MCF-7DOX) cell lines were established. The IC50 for each drug was determined using a clonogenic assay as outlined below. The drug resistant cells were kept in culture in the presence of the maximally tolerated drug dose. Before each experiment, the cell lines were grown for two days in the absence of drug after which fresh medium containing either calphostin C (Sigma Laboratories, Oakville, ON), doxorubicin (Adriamycin PFS®, USP, Mississauga, ON) or paclitaxel (Taxol, Bristol-Myers Squibb, Montreal, QC) was added at the concentrations indicated.
The sensitivity of MCF-7, MCF-7TAX and MCF-7DOX cells to calphostin C, paclitaxel or doxorubicin was determined using a clonogenic assay. Briefly, 2.5×10^5 cells were seeded into 25 cm^2 tissue culture flasks in Dulbecco's H21 medium supplemented with 10% FBS. The cells were allowed to grow overnight, after which the medium was removed and replaced with medium containing varying concentrations of paclitaxel, doxorubicin, or calphostin C (after 2 hours of light exposure to activate the molecule). After 24 hours, the medium (including any floating cells) was transferred to 14 ml screw-capped tubes and centrifuged at 1000 rpm for 10 min. The adherent cells were then released from their flasks by trypsin treatment and suspended in 10 ml of H21 medium. The cell suspension was transferred to the previous tube and all cells harvested by centrifugation. The cell pellet was washed one more time with drug-free medium and resuspended in 300 μl of normal growth medium containing FBS. The cells were then added to 2.7 ml of a methylcellulose solution. The methylcellulose medium was prepared by combining 70 ml of a 2.6% (w/v) methylcellulose solution [Shin-Etsu Chemical Co., Tokyo, Japan] in Iscove's medium (Princess Margaret Hospital, Toronto, ON) with 30 ml of FBS. Three ml syringes equipped with a 16-gauge needle were used for transferring the viscous medium. The mixture was vigorously vortexed for 10 s to ensure an even distribution of cells within the viscous medium. The vortexed samples were then allowed to sit for 30 min to remove air bubbles. A 1.2 ml aliquot of the cell suspension was then transferred to a 6-well plate and the cells allowed to grow until colonies of >50 cells were visible by light microscopy for the various cell lines in the absence of drug. The colonies present in 5 randomly selected fields were then counted by visual inspection.
Calphostin C (Sigma Laboratories, Oakville, ON) was prepared as a 100 μM stock solution in dimethylsulfoxide (Sigma Laboratories, Oakville, ON) and stored at −70° C. in 100 μl aliquots. […]

In general, pIC50 refers to −log10 of the IC50, conventionally taken in molar units. Read a high pIC50 as a small IC50. In turn, `COc1c(C[C@@H](C)OC(=O)Oc2ccc(O)cc2)c2c3c(C[C@@H](C)OC(=O)c4ccccc4)c(OC)c(=O)c4c(O)cc(OC)c(c5c(OC)cc(O)c(c1=O)c52)c43` [calphostin C] gave a pIC50 (MCF-7DOX cells, 24 h drug, calphostin C light-activated 2 h) of 7.19. Besides, under “MCF-7DOX vs MCF-7”, the “fold resistance / lower sensitivity compared to MCF-7 cells” value is given as “approximately 5 fold”.
